Experimental data taken from patent US20250346585A1 (Alexion Pharmaceuticals, Inc., priority 2022, published 2025).

Target: Human complement C1s enzyme (Homo sapiens (Human), UniProt P09871)
Experiment: Human C1s enzyme assay
Assay type: biochemical
Settings: Human complement C1s enzyme 1.16 nM, substrate Z-L-Lys-SBzl 100 μM, assay of Example 3; read-out: IC50 (Stars)
Method in brief: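 Purified serum-derived human C1s (1.16 nM final) preincubated 5 min at room temperature with compound in 50 mM Tris, 1 M NaCl, pH 7.5. Z-L-Lys-SBzl thioester substrate and DTNB added (100 μM each, final); A405 read every 30 s for 30 min. IC50 from nonlinear regression of reaction rates against compound concentration.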

Sequence of Human complement C1s enzyme (P09871 438-688 limits assumed): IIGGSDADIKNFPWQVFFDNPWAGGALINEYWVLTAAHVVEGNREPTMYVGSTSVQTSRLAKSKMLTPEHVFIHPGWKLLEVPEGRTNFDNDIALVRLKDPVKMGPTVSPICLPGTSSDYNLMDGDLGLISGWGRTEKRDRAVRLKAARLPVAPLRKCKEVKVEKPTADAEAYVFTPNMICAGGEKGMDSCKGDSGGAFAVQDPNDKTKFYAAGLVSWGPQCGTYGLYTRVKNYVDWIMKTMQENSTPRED
Sequence of Human complement C1s enzyme (P09871 16-437 partner limits assumed): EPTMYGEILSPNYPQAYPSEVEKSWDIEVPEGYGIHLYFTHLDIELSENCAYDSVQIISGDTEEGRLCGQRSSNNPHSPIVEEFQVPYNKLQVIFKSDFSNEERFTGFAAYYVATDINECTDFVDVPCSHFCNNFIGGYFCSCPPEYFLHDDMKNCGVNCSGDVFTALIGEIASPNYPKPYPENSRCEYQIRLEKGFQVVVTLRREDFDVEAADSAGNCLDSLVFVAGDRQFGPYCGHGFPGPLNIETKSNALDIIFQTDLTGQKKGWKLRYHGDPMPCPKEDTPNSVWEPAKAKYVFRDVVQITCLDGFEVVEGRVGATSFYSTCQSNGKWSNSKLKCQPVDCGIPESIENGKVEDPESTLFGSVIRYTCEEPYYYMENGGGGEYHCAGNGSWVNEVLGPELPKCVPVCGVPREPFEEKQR

Compound | IC50 [nM]
N=C(N)c1csc(C(CN)NC(=O)[C@@H]2C[C@@H](OC(F)F)CN2C(=O)CNC(=O)c2ccc(Oc3ccccc3)cc2)c1 (stereo partly shown) [Compound 314] | > 1000
NCC(=O)Nc1csc(CNC(=O)[C@@H]2CC3(CN2C(=O)CNC(=O)c2ccc(Oc4ccc(F)cc4)cc2)OCCO3)c1 [Compound 316, (S)-N-((4-(2-aminoacetamido)thiophen-2-yl)methyl)-7-((4-(4-fluorophenoxy)benzoyl)glycyl)-1,4-dioxa-7-azaspiro[4.4]nonane-8-carboxamide] | 100 to 1000
NC(=O)Nc1csc(CNC(=O)[C@@H]2CC3(CN2C(=O)CNC(=O)c2ccc(Oc4ccc(F)cc4)cc2)OCCO3)c1 [Compound 317, (S)-7-((4-(4-fluorophenoxy)benzoyl)glycyl)-N-((4-ureidothiophen-2-yl)methyl)-1,4-dioxa-7-azaspiro[4.4]nonane-8-carboxamide] | > 1000
NCCCCNc1csc(CNC(=O)[C@@H]2CC3(CN2C(=O)CNC(=O)c2ccc(Oc4ccc(F)cc4)cc2)OCCO3)c1 [Compound 318, (S)-N-((4-((4-aminobutyl)amino)thiophen-2-yl)methyl)-7-((4-(4-fluorophenoxy)benzoyl)glycyl)-1,4-dioxa-7-azaspiro[4.4]nonane-8-carboxamide] | > 1000
Nc1c(Nc2csc(CNC(=O)[C@@H]3CC4(CN3C(=O)CNC(=O)c3ccc(Oc5ccc(F)cc5)cc3)OCCO4)c2)c(=O)c1=O [Compound 319, (S)-N-((4-((2-amino-3,4-dioxocyclobut-1-en-1-yl)amino)thiophen-2-yl)methyl)-7-((4-(4-fluorophenoxy)benzoyl)glycyl)-1,4-dioxa-7-azaspiro[4.4]nonane-8-carboxamide] | > 1000
NCCCC(=O)Nc1csc(CNC(=O)[C@@H]2CC3(CN2C(=O)CNC(=O)c2ccc(Oc4ccc(F)cc4)cc2)OCCO3)c1 [Compound 320, (S)-N-((4-(4-aminobutanamido)thiophen-2-yl)methyl)-7-((4-(4-fluorophenoxy)benzoyl)glycyl)-1,4-dioxa-7-azaspiro[4.4]nonane-8-carboxamide] | > 1000
C[C@@H](NC(=O)[C@@H]1CC2(CN1C(=O)Cc1ccc(-c3ccc(F)cc3F)cc1)OCCO2)c1cc(C(=N)N)cs1 [Compound 321, (S)—N—((R)-1-(4-carbamimidoylthiophen-2-yl)ethyl)-7-(2-(2′,4′-difluoro-[1,1′-biphenyl]-4-yl)acetyl)-1,4-dioxa-7-azaspiro[4.4]nonane-8-carboxamide] | < 100
C[C@@H](NC(=O)[C@@H]1C[C@H](C(F)(F)F)CN1C(=O)CNC(=O)c1ccc2c(c1)-c1ccccc1C2(F)F)c1cc(C(=N)N)cs1 [Compound 322, (2S,4S)—N—((R)-1-(4-carbamimidoylthiophen-2-yl)ethyl)-1-((9,9-difluoro-9H-fluorene-3-carbonyl)glycyl)-4-(trifluoromethyl)pyrrolidine-2-carboxamide] | < 100
C[C@@H](NC(=O)[C@@H]1C[C@H](C(F)(F)F)CN1C(=O)CNC(=O)c1ccc(Oc2ccc(F)cc2)cc1)c1cc(C(=N)N)cs1 [Compound 323, (2S,4S)—N—((R)-1-(4-carbamimidoylthiophen-2-yl)ethyl)-1-((4-(4-fluorophenoxy)benzoyl)glycyl)-4-(trifluoromethyl)pyrrolidine-2-carboxamide] | < 100
C[C@@H](NC(=O)[C@@H]1C[C@@H](OC(F)F)CN1C(=O)CNC(=O)c1cccc(-c2ccc(F)cc2)c1)c1cc(C(=N)N)cs1 [Compound 330, (2S,4R)—N—((R)-1-(4-carbamimidoylthiophen-2-yl)ethyl)-4-(difluoromethoxy)-1-((4′-fluoro-[1,1′-biphenyl]-3-carbonyl)glycyl)pyrrolidine-2-carboxamide] | < 100
C[C@@H](NC(=O)[C@@H]1C[C@@H](S(C)(=O)=O)CN1C(=O)CNC(=O)c1cccc(-c2ccc(F)cc2)c1)c1cc(C(=N)N)cs1 [Compound 334, (2S,4R)—N—((R)-1-(4-carbamimidoylthiophen-2-yl)ethyl)-1-((4′-fluoro-[1,1′-biphenyl]-3-carbonyl)glycyl)-4-(methylsulfonyl)pyrrolidine-2-carboxamide] | < 100

The remaining lines, values ahead:

IC50 [nM] | Compound
< 100 | C[C@@H](NC(=O)[C@@H]1C[C@@H](C(F)(F)F)CN1C(=O)CNC(=O)c1ccc2c(c1)-c1ccccc1C2(F)F)c1cc(C(=N)N)cs1 [Compound 324, (2S,4R)—N—((R)-1-(4-carbamimidoylthiophen-2-yl)ethyl)-1-((9,9-difluoro-9H-fluorene-3-carbonyl)glycyl)-4-(trifluoromethyl)pyrrolidine-2-carboxamide]
< 100 | Cc1c2ccccc2cc2cc(C(=O)NCC(=O)N3CC4(C[C@H]3C(=O)N[C@H](C)c3cc(C(=N)N)cs3)OCCO4)ccc12 [Compound 325, (S)—N—((R)-1-(4-carbamimidoylthiophen-2-yl)ethyl)-7-((10-methylanthracene-2-carbonyl)glycyl)-1,4-dioxa-7-azaspiro[4.4]nonane-8-carboxamide]
< 100 | C[C@@H](NC(=O)[C@@H]1C[C@@H](OC(F)F)CN1C(=O)CNC(=O)c1ccc2[nH]c3ccccc3c2c1)c1cc(C(=N)N)cs1 [Compound 326, N-(2-((2S,4R)-2-(((R)-1-(4-carbamimidoylthiophen-2-yl)ethyl)carbamoyl)-4-(difluoromethoxy)pyrrolidin-1-yl)-2-oxoethyl)-9H-carbazole-3-carboxamide]
< 100 | C[C@@H](NC(=O)[C@@H]1C[C@](F)(CF)CN1C(=O)CNC(=O)c1ccc2c(c1)Oc1ccccc1S2)c1cc(C(=N)N)cs1 [Compound 327, (2S,4R)—N—((R)-1-(4-carbamimidoylthiophen-2-yl)ethyl)-4-fluoro-4-(fluoromethyl)-1-((phenoxathiine-3-carbonyl)glycyl)pyrrolidine-2-carboxamide]
< 100 | C[C@@H](NC(=O)[C@@H]1C[C@@H](OC(F)F)CN1C(=O)CNC(=O)c1ccc2c(c1)Oc1ccccc1S2)c1cc(C(=N)N)cs1 [Compound 328, (2S,4R)—N—((R)-1-(4-carbamimidoylthiophen-2-yl)ethyl)-4-(difluoromethoxy)-1-((phenoxathiine-3-carbonyl)glycyl)pyrrolidine-2-carboxamide]
< 100 | C[C@@H](NC(=O)[C@@H]1C[C@](F)(CF)CN1C(=O)CNC(=O)c1cccc(-c2ccc(F)cc2)c1)c1cc(C(=N)N)cs1 [Compound 329, (2S,4R)—N—((R)-1-(4-carbamimidoylthiophen-2-yl)ethyl)-4-fluoro-1-((4′-fluoro-[1,1′-biphenyl]-3-carbonyl)glycyl)-4-(fluoromethyl)pyrrolidine-2-carboxamide]
< 100 | C[C@@H](NC(=O)[C@@H]1CC2(CN1C(=O)CNC(=O)c1ccc3cc4ccccc4nc3c1)OCCO2)c1cc(C(=N)N)cs1 [Compound 331, (S)-7-((acridine-3-carbonyl)glycyl)-N—((R)-1-(4-carbamimidoylthiophen-2-yl)ethyl)-1,4-dioxa-7-azaspiro[4.4]nonane-8-carboxamide]
< 100 | C[C@@H](NC(=O)[C@@H]1C[C@@H](S(C)(=O)=O)CN1C(=O)CNC(=O)c1ccc2c(c1)Oc1ccccc1S2)c1cc(C(=N)N)cs1 [Compound 333, (2S,4R)—N—((R)-1-(4-carbamimidoylthiophen-2-yl)ethyl)-4-(methylsulfonyl)-1-((phenoxathiine-3-carbonyl)glycyl)pyrrolidine-2-carboxamide]
